Measured values: US8461328B2, “Tricyclic heterocyclic compounds, compositions and methods of use thereof” (Genentech, Inc., priority 2010, dated 2013)

How the values were obtained:
Type in all cases: biochemical
JAK3 = biological target: T1, JAK3 (Homo sapiens, UniProt P52333); assay: JAK3 inhibition (Table 4); details: read-out: JAK3 Ki
T1 construct: made in house; host or cells: SF9 insect cells (baculovirus)

JAK1 = biological target: T2, JAK1 (Homo sapiens, UniProt P23458); assay: JAK1 inhibition (Table 4); details: read-out: JAK1 Ki
T2 construct: made in house; host or cells: SF9 insect cells (baculovirus)
T2 sequence (P23458 852-1154): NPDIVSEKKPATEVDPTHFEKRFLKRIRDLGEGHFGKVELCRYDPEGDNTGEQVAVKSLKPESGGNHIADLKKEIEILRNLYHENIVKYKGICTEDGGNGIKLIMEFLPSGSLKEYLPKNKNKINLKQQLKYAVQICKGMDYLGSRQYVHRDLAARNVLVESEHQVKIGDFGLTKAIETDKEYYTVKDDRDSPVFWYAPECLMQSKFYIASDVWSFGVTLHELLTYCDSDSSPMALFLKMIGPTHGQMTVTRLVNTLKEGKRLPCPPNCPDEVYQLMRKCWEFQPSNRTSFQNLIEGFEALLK

JAK2 = biological target: T3, JAK2 (Homo sapiens, UniProt O60674); assay: JAK2 inhibition (Table 4); details: read-out: JAK2 Ki
T3 construct: made in house; host or cells: SF9 insect cells (baculovirus)
T3 sequence (O60674 812-1132): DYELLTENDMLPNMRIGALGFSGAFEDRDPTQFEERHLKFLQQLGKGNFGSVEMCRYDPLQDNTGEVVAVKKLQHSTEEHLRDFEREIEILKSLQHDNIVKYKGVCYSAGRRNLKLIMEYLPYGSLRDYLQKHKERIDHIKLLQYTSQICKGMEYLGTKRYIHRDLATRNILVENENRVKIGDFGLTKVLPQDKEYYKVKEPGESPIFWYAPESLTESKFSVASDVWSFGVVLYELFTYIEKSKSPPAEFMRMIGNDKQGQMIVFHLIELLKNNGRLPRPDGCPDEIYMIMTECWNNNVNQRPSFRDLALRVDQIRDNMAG

TYK2 = biological target: T4, TYK2 (Homo sapiens, UniProt P29597); assay: TYK2 inhibition (Table 4)
T4 construct: made in house; host or cells: SF9 insect cells (baculovirus)
T4 sequence (P29597 873-1187): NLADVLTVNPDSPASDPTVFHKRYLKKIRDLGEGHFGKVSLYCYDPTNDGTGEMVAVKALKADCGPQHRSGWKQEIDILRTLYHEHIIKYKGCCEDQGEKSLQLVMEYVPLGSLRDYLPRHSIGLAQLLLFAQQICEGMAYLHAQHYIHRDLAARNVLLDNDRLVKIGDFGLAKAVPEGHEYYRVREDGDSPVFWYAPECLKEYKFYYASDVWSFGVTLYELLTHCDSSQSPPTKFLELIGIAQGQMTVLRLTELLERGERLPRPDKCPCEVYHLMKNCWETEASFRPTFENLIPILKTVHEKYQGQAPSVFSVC

T1 sequence (P52333 783-1124): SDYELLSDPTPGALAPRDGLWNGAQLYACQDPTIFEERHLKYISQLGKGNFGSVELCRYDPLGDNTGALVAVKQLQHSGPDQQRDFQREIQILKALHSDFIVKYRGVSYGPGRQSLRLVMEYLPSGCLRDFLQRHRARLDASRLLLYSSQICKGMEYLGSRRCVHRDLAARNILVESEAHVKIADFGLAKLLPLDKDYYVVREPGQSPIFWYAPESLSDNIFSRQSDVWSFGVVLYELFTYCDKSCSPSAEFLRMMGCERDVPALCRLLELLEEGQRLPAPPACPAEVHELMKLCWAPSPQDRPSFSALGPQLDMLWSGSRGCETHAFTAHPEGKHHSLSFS

| Ki (JAK3) | Ki (JAK1) | Ki (JAK2) | Ki (TYK2) | Compound |
| --- | --- | --- | --- | --- |
| 21 nM | 3.91 nM | 5.28 nM | 31.5 nM | CC(C)(C#N)C(=O)N1CCC[C@@H](n2cnc3cnc4[nH]ccc4c32)C1 [Example 297, 2,2-Dimethyl-3-oxo-3-[(R)-3-(6H-1,3,5,6-tetraaza-as-indacen-1-yl)-piperidin-1-yl]-propionitrile] |
| 231 nM | 27.8 nM | 367 nM | 1290 nM | c1cc2c(ncc3nc(C4CC4)n(C4CCNCC4)c32)[nH]1 [Example 298, 2-Cyclopropyl-1-piperidin-4-yl-1,6-dihydro-1,3,5,6-tetraaza-as-indacene] |
| 4.53 nM | 2.5 nM | 4.53 nM | 127 nM | FC(F)c1nc2cnc3[nH]ccc3c2n1C1CCN(Cc2ccccc2)CC1 [Example 299, 1-(1-Benzyl-piperidin-4-yl)-2-difluoromethyl-1,6-dihydro-1,3,5,6-tetraaza-as-indacene] |
| 1450 nM | 373 nM | 1300 nM | 2160 nM | FC(F)(F)c1nc2cnc3[nH]ccc3c2n1[C@@H]1CCCNC1 [Example 301, 1-(R)-Piperidin-3-yl-2-trifluoromethyl-1,6-dihydro-1,3,5,6-tetraaza-as-indacene] |
| 66.4 nM | 9.45 nM | 13.7 nM | 71.7 nM | N#CCC(=O)N1CCC[C@@H](n2c(C(F)(F)F)nc3cnc4[nH]ccc4c32)C1 [Example 302, 3-Oxo-3-[(R)-3-(2-trifluoromethyl-6H-1,3,5,6-tetraaza-as-indacen-1-yl)-piperidin-1-yl]-propionitrile] |
| 14.6 nM | 2.07 nM | 3.53 nM | 61.2 nM | Fc1cncc(CN2CCC(n3cnc4cnc5[nH]ccc5c43)CC2)c1 [Example 303, 1-[1-(5-Fluoro-pyridin-3-ylmethyl)-piperidin-4-yl]-1,6-dihydro-1,3,5,6-tetraaza-as-indacene] |
| 20.4 nM | 3.32 nM | 3.55 nM | 52.4 nM | N#Cc1cccc(CN2CCC(n3cnc4cnc5[nH]ccc5c43)CC2)n1 [Example 304, 6-[4-(6H-1,3,5,6-Tetraaza-as-indacen-1-yl)-piperidin-1-ylmethyl]-pyridine-2-carbonitrile] |
| 202 nM | 18.2 nM | 228 nM | 373 nM | FC(F)c1nc2cnc3[nH]ccc3c2n1C1CCNCC1 [Example 307, 2-Difluoromethyl-1-piperidin-4-yl-1,6-dihydro-1,3,5,6-tetraaza-as-indacene] |
| 6.04 nM | 1.5 nM | 2.63 nM | 12.3 nM | N#CCCN1CCC(n2c(C(F)F)nc3cnc4[nH]ccc4c32)CC1 [Example 308, 3-[4-(2-Difluoromethyl-6H-1,3,5,6-tetraaza-as-indacen-1-yl)-piperidin-1-yl]-propionitrile] |
| 93.4 nM | 52 nM | 295 nM | 1940 nM | N#Cc1cccc(CN2CCC(n3c(CC(=O)N4CCC(F)(F)CC4)nc4cnc5[nH]ccc5c43)CC2)n1 [Example 309] |
| 213 nM | 9.01 nM | 26.3 nM | 197 nM | CC(C)OC(=O)N[C@H]1CC[C@H](n2cnc3cnc4[nH]ccc4c32)CC1 [Example 310, [(R)-4-(6H-1,3,5,6-Tetraaza-as-indacen-1-yl)-cyclohexyl]-carbamic acid isopropyl ester] |
| 59.6 nM | 1.38 nM | 3.67 nM | 78.6 nM | N#Cc1cc(CN2CCC(n3cnc4cnc5[nH]ccc5c43)CC2)ccn1 [Example 313, 4-[4-(6H-1,3,5,6-Tetraaza-as-indacen-1-yl)-piperidin-1-ylmethyl]-pyridine-2-carbonitrile] |
| 36.2 nM | 4.46 nM | 7.44 nM | 124 nM | FC(F)(F)c1cccc(CN2CCC(n3cnc4cnc5[nH]ccc5c43)CC2)n1 [Example 314, 1-[1-(6Trifluoromethyl-pyridin-2-ylmethyl)-piperidin-4-yl]-1,6-dihydro-1,3,5,6-tetraaza-as-indacene] |
| 41.3 nM | 5.7 nM | 6.28 nM | 29.2 nM | O=C(C1CCC1)N1CCC[C@@H](n2cnc3cnc4[nH]ccc4c32)C1 [Example 315, Cyclobutyl-[(R)-3-(6H-1,3,5,6-tetraaza-as-indacen-1-yl)-piperidin1-yl]-methanone] |
| 9.24 nM | 2.77 nM | 3.2 nM | 17.7 nM | N#CC1(C(=O)N2CCC[C@@H](n3cnc4cnc5[nH]ccc5c43)C2)CCC1 [Example 316, 1-[(R)-3-(6H-1,3,5,6-Tetraaza-as-indacen-1-yl)-piperidine-carbonyl]-cyclobutanecarbonitrile] |
| 37.4 nM | 2.9 nM | 5.78 nM | 94.6 nM | CC(C)(C)OC(=O)NC1CC(n2cnc3cnc4[nH]ccc4c32)C1 (stereo not drawn) [Example 317, [3-(6H-1,3,5,6-Tetraaza-as-indacen-1-yl)-cyclobutyl]-carbamic acid tert-butyl ester] |
| 1160 nM | 56 nM | 181 nM | 608 nM | NC1CC(n2cnc3cnc4[nH]ccc4c32)C1 (stereo not drawn) [Example 320, 3-(6H-1,3,5,6-Tetraaza-as-indacen-1-yl)-cyclobutylamine] |
| 19.5 nM | 5.3 nM | 21.6 nM | 1360 nM | c1ccc(CN2CCC(n3c(C4CCC4)nc4cnc5[nH]ccc5c43)CC2)cc1 [Example 325, 1-(1-Benzyl-piperidin-4-yl)-2-cyclobutyl-1,6-dihydro-1,3,5,6-tetraaza-as-indacene] |
| 552 nM | 27.6 nM | 938 nM | 2630 nM | c1cc2c(ncc3nc(C4CCC4)n(C4CCNCC4)c32)[nH]1 [Example 326, 2-Cyclobutyl-1-piperidin-4-yl-1,6-dihydro-1,3,5,6-tetraaza-as-indacene] |
| 20 nM | 4.84 nM | 16.9 nM | 138 nM | N#CCCN1CCC(n2c(C3CCC3)nc3cnc4[nH]ccc4c32)CC1 [Example 327, 3-[4-(2-Cyclobutyl-6H-1,3,5,6-tetraaza-as-indacen-1-yl)-piperidin-1-yl]-propionitrile] |
| 173 nM | 16.5 nM | 41.6 nM | 230 nM | N#Cc1cccc(CNC2CC(n3cnc4cnc5[nH]ccc5c43)C2)c1 (stereo not drawn) [Example 329, 3-{[3-(6H-1,3,5,6-Tetraaza-as-indacen-1-yl)-cyclobutylamino]-methyl}-benzonitrile] |
| 64.4 nM | 6.08 nM | 16 nM | 45.8 nM | N#CCCNC1CC(n2cnc3cnc4[nH]ccc4c32)C1 (stereo not drawn) [Example 331, 3-[3-(6H-1,3,5,6-Tetraaza-as-indacen-1-yl)-cyclobutylamino]-propionitrile] |
| 170 nM | 11.7 nM | 25.3 nM | 59.1 nM | c1ncc(CN[C@H]2CC[C@@H](n3cnc4cnc5[nH]ccc5c43)CC2)cn1 [Example 333, Pyrimidin-5-ylmethyl-[4-(6H-1,3,5,6-tetraaza-as-indacen-1-yl)-cyclohexyl]-amine] |
| 67.6 nM | 31.2 nM | 127 nM | 944 nM | CC(C)(O)c1nc2cnc3[nH]ccc3c2n1C1CCN(CCC#N)CC1 [Example 335, 3-{4-[2-(1-Hydroxy-1-methyl-ethyl)-6H-1,3,5,6-tetraaza-as-indacen-1-yl]-piperidin-1-yl}-propionitrile] |
| 656 nM | 16 nM | 63.4 nM | 77.6 nM | c1cncc(CN[C@H]2CC[C@H](n3cnc4cnc5[nH]ccc5c43)CC2)c1 [Example 336, Pyridin-3-ylmethyl-[4-(6H-1,3,5,6-tetraaza-as-indacen-1-yl)-cyclohexyl]-amine] |
| 10.7 nM | 2.9 nM | 5.31 nM | 33.7 nM | N#CCCN1CCC(n2c(C3CC3)nc3cnc4[nH]ccc4c32)CC1 [Example 337, 3-[4-(2-Cyclopropyl-6H-1,3,5,6-tetraaza-as-indacen-1-yl)-piperidin-1-yl]-propionitrile] |
| 288 nM | 21.1 nM | 50.1 nM | 158 nM | OCCN1CCC(n2cnc3cnc4[nH]ccc4c32)CC1 [Example 338, 2-[4-(6H-1,3,5,6-Tetraaza-as-indacen-1-yl)-piperidin-1-yl]-ethanol] |
| 40.5 nM | 3.89 nM | 7.83 nM | 22.5 nM | FC(F)(F)CCN1CCC(n2cnc3cnc4[nH]ccc4c32)CC1 [Example 339, 1-[1-(3,3,3-Trifluoro-propyl)-piperidin-4-yl]-1,6-dihydro-1,3,5,6-tetraaza-as-indacene] |
| 24.6 nM | 17.2 nM | 19.5 nM | 101 nM | N#C[C@@H]1C[C@@H]1C(=O)N1CCC[C@@H](n2cnc3cnc4[nH]ccc4c32)C1 [Example 340, (1R,2S)-2-[(R)-3-(6H-1,3,5,6-Tetraaza-as-indacen-1-yl)-piperidine-1-carbonyl]-cyclopropanecarbonitrile] |
| 169 nM | 10.2 nM | 7.47 nM | 106 nM | CN([C@H]1CC[C@H](n2cnc3cnc4[nH]ccc4c32)CC1)S(=O)(=O)C1CC1 [Example 341, Cyclopropanesulfonic acid methyl-[4-(6H-1,3,5,6-tetraaza-as-indacen1-yl)-cyclohexyl]-amide] |
